Data: publication PMC5550493, “The Conserved Lysine-265 Allosterically Modulates Nucleotide- and Actin-binding Site Coupling in Myosin-2” (Scientific Reports, 2017)

Experiments:
[1] = biological target: T1, actomyosin (Dd myosin-2 M765-2R with F-actin) (Dictyostelium discoideum, UniProt P08799); assay: NADH-coupled actin-activated ATPase assay; assay type: biochemical; settings: 20 µM F-actin, 1 mM ATP, 5% DMSO, 25 mM HEPES pH 7.3, 25 mM KCl, 5 mM MgCl2, 25 °C; allosteric
T1 construct: gene mhcA; M765-2R: mhcA 1-765 fused to Dd alpha-actinin repeats (codons 264-505), C-terminal Asp-Ala-Leu-(His)8 tag kept, expressed in D. discoideum AX3-Orf+; in complex with F-actin purified from rabbit skeletal muscle; with Actin, alpha skeletal muscle (Oryctolagus cuniculus)
T1 sequence (P08799 whole entry, looked up, the tested form may be a part): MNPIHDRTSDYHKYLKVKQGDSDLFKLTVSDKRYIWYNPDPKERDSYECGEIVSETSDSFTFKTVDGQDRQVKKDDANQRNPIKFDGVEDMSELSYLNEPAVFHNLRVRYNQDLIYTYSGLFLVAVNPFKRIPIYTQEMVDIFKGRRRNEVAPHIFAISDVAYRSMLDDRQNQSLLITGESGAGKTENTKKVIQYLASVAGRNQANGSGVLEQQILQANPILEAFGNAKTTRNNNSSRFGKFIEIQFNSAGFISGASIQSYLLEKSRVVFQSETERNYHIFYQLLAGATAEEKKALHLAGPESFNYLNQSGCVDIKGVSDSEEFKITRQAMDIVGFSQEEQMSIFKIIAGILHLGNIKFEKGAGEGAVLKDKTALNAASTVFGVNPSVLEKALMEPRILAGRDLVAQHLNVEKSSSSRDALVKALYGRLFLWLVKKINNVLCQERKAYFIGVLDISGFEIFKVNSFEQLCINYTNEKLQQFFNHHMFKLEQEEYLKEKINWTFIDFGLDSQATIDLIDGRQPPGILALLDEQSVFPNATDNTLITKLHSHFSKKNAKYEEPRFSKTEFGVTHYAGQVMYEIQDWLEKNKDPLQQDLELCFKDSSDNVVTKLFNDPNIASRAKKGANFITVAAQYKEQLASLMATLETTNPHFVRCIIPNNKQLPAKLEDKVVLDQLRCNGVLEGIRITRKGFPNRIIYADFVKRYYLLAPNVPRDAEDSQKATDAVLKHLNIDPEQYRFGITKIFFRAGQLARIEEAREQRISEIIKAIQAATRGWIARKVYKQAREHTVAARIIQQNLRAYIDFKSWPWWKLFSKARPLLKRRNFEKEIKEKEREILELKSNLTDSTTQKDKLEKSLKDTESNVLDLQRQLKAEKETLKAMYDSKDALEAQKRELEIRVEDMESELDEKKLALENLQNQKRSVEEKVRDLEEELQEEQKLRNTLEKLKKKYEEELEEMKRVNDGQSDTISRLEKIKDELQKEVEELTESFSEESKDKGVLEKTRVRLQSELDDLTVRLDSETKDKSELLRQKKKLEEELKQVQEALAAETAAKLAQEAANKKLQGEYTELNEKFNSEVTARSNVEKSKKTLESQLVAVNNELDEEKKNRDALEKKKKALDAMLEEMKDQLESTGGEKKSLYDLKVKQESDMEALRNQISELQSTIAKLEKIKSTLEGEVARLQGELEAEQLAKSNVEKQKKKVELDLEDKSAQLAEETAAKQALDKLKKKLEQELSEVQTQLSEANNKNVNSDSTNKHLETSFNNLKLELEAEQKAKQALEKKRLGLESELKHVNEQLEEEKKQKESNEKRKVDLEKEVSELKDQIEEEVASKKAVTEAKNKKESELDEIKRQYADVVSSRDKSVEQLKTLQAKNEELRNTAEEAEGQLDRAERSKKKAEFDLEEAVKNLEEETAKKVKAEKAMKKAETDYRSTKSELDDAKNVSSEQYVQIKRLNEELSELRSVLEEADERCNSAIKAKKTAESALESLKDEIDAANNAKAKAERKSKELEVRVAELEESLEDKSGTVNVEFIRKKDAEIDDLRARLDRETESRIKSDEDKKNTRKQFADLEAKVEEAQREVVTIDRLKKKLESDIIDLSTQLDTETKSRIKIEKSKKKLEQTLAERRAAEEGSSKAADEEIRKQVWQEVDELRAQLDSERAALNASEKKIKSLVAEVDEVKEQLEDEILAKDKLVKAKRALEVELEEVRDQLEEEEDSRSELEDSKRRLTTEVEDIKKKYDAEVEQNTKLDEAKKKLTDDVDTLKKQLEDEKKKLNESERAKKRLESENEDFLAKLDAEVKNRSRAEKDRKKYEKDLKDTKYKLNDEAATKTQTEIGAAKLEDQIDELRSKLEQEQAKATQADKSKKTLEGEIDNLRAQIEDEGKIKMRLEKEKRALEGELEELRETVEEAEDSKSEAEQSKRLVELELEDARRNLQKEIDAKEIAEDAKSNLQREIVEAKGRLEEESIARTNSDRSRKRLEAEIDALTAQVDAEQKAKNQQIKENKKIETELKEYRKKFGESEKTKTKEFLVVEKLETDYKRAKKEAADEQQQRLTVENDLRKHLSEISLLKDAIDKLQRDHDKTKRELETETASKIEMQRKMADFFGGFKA

[2] = biological target: T1, actomyosin (Dd myosin-2 M765-2R with F-actin); assay: stopped-flow light scattering, ADP inhibition of ATP-induced actomyosin dissociation; assay type: binding; settings: read-out: Dd myosin-2 (M765-2R construct) / WT
Source text: stopped-flow light scattering, ADP inhibition of ATP-induced actomyosin dissociation on actomyosin (Dd myosin-2 M765-2R with F-actin)

SMILES | n-fold inhibition at 100 μM PBP [1] | Kd [2]
Oc1c(Br)cc(Br)cc1-c1[nH]c(Br)c(Br)c1Br [pentabromopseudilin] | 7 fold | 
Nc1ncnc2c1ncn2[C@@H]1O[C@H](COP(=O)(O)OP(=O)(O)O)[C@@H](O)[C@H]1O [ADP] |  | 73.3 ± 7 µM
